In patent US12390464B2, “Treatment of EGFR mutant-related cancers using a combination of EGFR and CDK4/6 inhibitors” (BETA PHARMA, INC., priority 2019, dated 2025):
Values joined by “and” are separate entries in the source; they are usually repeats but may differ in a detail not shown here. Equal values may be shown once.

How the values were obtained:
[1] = system: kinase domain of the T790M double mutant; settings: cited from earlier work
[2] = system: HCC827 tumors (delE746-A750 activating mutation); assay: Antitumor activity in the HCC827 mouse xenograft model; format: in vivo; settings: oral QD; for Tumor Weight: tumors harvested day 35, mean ± SD, n = 8; for Tumor Weight Inhibition Rate: tumors harvested day 35
Description: Cell Culture and Implantation. HCC827 cells were cultured in a CO2 incubator in culture media containing modified RPMI (Hyclone, Cat: SH30809.01); 10% fetal bovine serum (Gibco, Cat: 10099-141); 100 U/ml penicillin and 100 μg/ml streptomycin (Hyclone, Cat: SV30010). Cells were digested with 0.25% trypsin (Hyclone, Cat: SH30042.01) and subcultured every four days. When the required cells was in the logarithmic growth phase, the cell counts were collected and the tumors were subcutaneously implanted in Balb/c nude female mice (14-19 g) at 1×10^7/0.2 mL/mouse (50% Matrigel CORNING, Cat: 354234) in the right back side of each mouse. 8 days after implantation, 56 mice with tumor volume of 132-289 mm^3 were selected and randomly divided into 7 groups according to tumor volume and body weight.
Test Sample Preparation Formulation and Administration. A stock solution of 1 as the methanesulfonate salt was prepared at 0.3 mg/mL in normal saline. A stock solution of 2 as the hydrochloride salt was prepared 2.0 mg/mL in sterile water. The vehicle control was a solution of 0.5% sodium carboxymethyl cellulose in sterile water. All stock solutions were stored at 2-8° C. and prepared fresh on a weekly basis. The stock solutions were administered orally either individually or in combination at the indicated salt dosages depicted in FIG. 1 and Table 2 once a day for 14 days. Dosing was suspended when body weight lost more than 15%.
Tumor Volume Determination and Data Analysis. The tumor volumes were determined twice per week by measuring the length and width of each tumor with a Vernier caliper and calculating the tumor volume. All tumors were harvested on day 35 and weighed. The Tumor Weight Inhibition Rate (IRTW%) was calculated via the equation: IRTW%=(1−(TW(treated)/TW(control)))×100%, where TW is defined as tumor weight. Histograms were generated using Prism GraphPad (mean±S.E.M.), and T analysis was used for statistical analysis. A p value less than 0.05 represents a significant difference between groups and a p value less than 0.01 represents a highly significant difference between groups.

[3] = system: MCF7 human breast cancer cell line; settings: cited from earlier work

| SMILES | inhibition of EGFR T790M double mutant kinase domain [1] | Tumor Weight ([2]; 1 at 3 mg/kg alone) [g] | Tumor Weight Inhibition Rate ([2]; 1 at 3 mg/kg alone, 3 mg/kg) | in vitro activity in MCF7 cell line [3] | Tumor Weight Inhibition Rate ([2]; 2 at 20 mg/kg alone) [%] | Tumor Weight ([2]; 2 at 20 mg/kg alone) [g] |
| --- | --- | --- | --- | --- | --- | --- |
| C=CC(=O)Nc1cc(Nc2nccc(-c3cn(C)c4ccccc34)n2)c(OC)cc1OCCN(C)C [Compound 1, N-[2-[2-(dimethylamino)ethoxy]-4-methoxy-5-[[4-(1-methyl-1H-indol-3-yl)-2-pyrimidinyl]amino]phenyl]-2-propenamide] | effectively inhibits | 0.1423 ± 0.1152 | 83.1% and 83.1^f % | – | – | – |
| CCN1CCN(Cc2ccc(Nc3ncc(F)c(-c4ccc5nn(C)c(C(C)C)c5c4)n3)nc2)CC1 [Compound 2, N-[5-[(4-ethyl-1-piperazinyl)methyl]-2-pyridinyl]-5-fluoro-4-[2-methyl-3-(1-methylethyl)-2H-indazol-5-yl]-2-pyrimidinamine] | – | – | – | potent in vitro activity | 30.2 | 0.5864 ± 0.2235 |
